# Reference: patent publication US12115152B2, “Pan-RAF kinase inhibitor and use thereof” (HEFEI INSTITUTES OF PHYSICAL SCIENCE, CHINESE ACADEMY OF …, priority 2019, dated 2024)
# Where “and” joins values, the source holds several entries; their conditions need not be identical. Equal entries are not always repeated. Where two headings read alike, the source gives them in different places.
# Test: Pharmacokinetic parameters in rats
# Type: in vivo, SD rats
# Conditions: rat
# Method: In the example, SD rats (180-220 g, male) (purchased from Experimental Animal Center of Anhui Medical University, China) were used. The animals were kept in cages ventilated independently with 6 rats per cage. The feeding was performed at a temperature of 20˜26° C. and a humidity of 35-75%. The light condition was 12 hours of lighting/12 hours of darkness. The corncob bedding was refreshed once a week. The rats were fed with foods and drinking water on an ad libitum basis. The rats were marked with a number on the tails. During the experiment, the breeding and use of animals strictly follow the regulations of Association for Assessment and Accreditation of Laboratory Animal Care International.
# Solutions of Compound 16 and Comparative Compound 1 were prepared as follows. 10 mg of the compound to be tested was precisely weighed into a sterile vial, and was dissolved with a small amount of DMSO, and then was made to a constant volume of 5 ml with 5% glucose solution, to give a gavage test solution at a concentration of 2 mg/mL. 0.5 ml of the above gavage test solution at a concentration of 2 mg/mL was precisely taken, and was made to constant volume of 5 ml with 4.5 ml of 5% glucose solution, to give an intravenous injection test solution at a concentration of 0.2 mg/mL. The solution was prepared immediately before being used in the experiment.
# 6 SD rats were randomly divided into two groups, and the synthesized compounds were administered by gavage and tail vein injection, respectively. About 0.3 mL of blood samples were collected from the retro-orbital venous plexus at 0 h before administration and at 5 min, 15 min, 30 min, 1 h, 1.5 h, 2 h, 4 h, 6 h, 9 h, 12 h, 24 h after administration for the gavage group; and at 0 h before administration and at 2 min, 5 min, 15 min, 30 min, 1 h, 2 h, 4 h, 6 h, 9 h, and 12 h after administration for the tail vein group. Each of the collected blood samples was put in a 1.5 mL centrifuge tube with heparin (Sigma, USA). The sample was centrifuged at 6000 rpm for 3 min to separate the plasma. 100 μL of plasma in the upper layer was placed into a new 1.5 mL centrifuge tube, and stored at −80° C. for determination. 10 mg of a standard for the compound to be tested was precisely weighed into a 10 mL volumetric flask, and was dissolved by adding methanol to make a constant volume and mixed uniformly, to give a 1 mg/mL stock solution. The stock solution was then diluted gradually with methanol to give a series of working solutions at concentrations of 0.01, 0.02, 0.05, 0.1, 0.2, 0.5, 1, 2, 5, 10, 20 μg/mL. The working solutions were placed in a refrigerator at 4° C. for later use. 11 centrifuge tubes were used. 10 μL of the above working solutions was respectively added to each of the centrifuge tubes, and then 90 μL of blank rat plasma was respectively added therein. The mixtures were mixed uniformly, so that the concentration of the compound in the rat plasma was 1, 2, 5, 10, 20, 50, 100, 200, 500, 1000, 2000 ng/mL. Then, 20 μL of a solution of caffeine as the internal standard (200 ng/mL) (National Institutes for Food and Drug Control, China) was added therein, and the resultant mixtures were vortexed for 10 s. Next, 400 μL of methanol was added. The resultant mixtures were vortexed for 10 min, and centrifuged at 16000 rpm for 5 min. Thereafter, 70 μL of the supernatant was placed into the inserted pipe of a sampling bottle. 5 μL of the sample was introduced for a LC-MS/MS analysis. A standard curve of the compound in the rat plasma was obtained by means of a linear regression performed by taking the ratio of the peak area of the sample to that of the internal standard As/Ais as the vertical ordinate, taking the concentration C (μg/mL) as the horizontal ordinate, and taking 1/C^2 was taken as a weighting coefficient.
# To 100 μL of the rat plasma to be tested stored at −80° C., 20 μL of a caffeine solution (200 ng/mL) as the internal standard was added. The resultant mixture was vortexed for 10 s. […]
# [1] = male, Sprague-Dawley, plasma, iv, 1 mg/kg, intravenous injection 1 mg/kg, average n=3
# [2] = male, Sprague-Dawley, plasma, iv, 1 mg/kg, intravenous injection 1 mg/kg, individual rats #1-#3
# [3] = intravenous injection 1 mg/kg, average n=3
# [4] = intravenous injection 1 mg/kg, individual rats #1-#3, 1 mg/kg
# [5] = oral administration (gavage) 10 mg/kg, average n=3
# [6] = oral administration (gavage) 10 mg/kg, individual rats #1-#3, 10 mg/kg
structure (smiles),measurement,setting,value
"Cc1ccc(NC(=O)c2cccc(C(F)(F)F)c2)cc1-n1cc(-c2cncc(N3CCOCC3)c2)cn1 [Example 16, N-(4-methyl-3-(4-(5-morpholinopyrid-3-yl)-1H-pyrazol-1-yl)phenyl)-3-(trifluoromethyl)benzamide]",AUC(0-inf),"male, SD, plasma, po, 10 mg/kg, oral administration (gavage) 10 mg/kg, average n=3",11000 ng·h/mL
same,Tmax,"male, SD, plasma, po, 10 mg/kg, oral administration (gavage) 10 mg/kg, average n=3, read-out: Tmax",0.67 h
same,half-life,"male, SD, plasma, po, 10 mg/kg, oral administration (gavage) 10 mg/kg, average n=3, read-out: T½ (converted)",3.02 h
same,AUC(0-inf),"male, SD, plasma, po, 10 mg/kg, oral administration (gavage) 10 mg/kg, individual rats #1-#3",13500 ng·h/mL
same,AUC0-t,"male, SD, plasma, po, 10 mg/kg, oral administration (gavage) 10 mg/kg, individual rats #1-#3, read-out: AUC0-t",13400 ng·h/mL
same,Tmax,"male, SD, plasma, po, 10 mg/kg, oral administration (gavage) 10 mg/kg, individual rats #1-#3, read-out: Tmax",0.5 h
same,half-life,"male, SD, plasma, po, 10 mg/kg, oral administration (gavage) 10 mg/kg, individual rats #1-#3, read-out: T½ (converted)",3.19 h
same,AUC(0-inf),[1],765 ng·h/mL
same,clearance,[1],21.9 mL/min/kg
same,AUC0-t,"male, Sprague-Dawley, plasma, iv, 1 mg/kg, intravenous injection 1 mg/kg, average n=3, read-out: AUC0-t",742 ng·h/mL
same,C0,"male, Sprague-Dawley, plasma, iv, 1 mg/kg, intravenous injection 1 mg/kg, average n=3, read-out: C0",1120 ng/mL
same,Cmax,"male, Sprague-Dawley, plasma, iv, 1 mg/kg, intravenous injection 1 mg/kg, average n=3, read-out: Cmax",914 ng/mL
same,MRT last,"male, Sprague-Dawley, plasma, iv, 1 mg/kg, intravenous injection 1 mg/kg, average n=3, read-out: MRT0-t",1.89 h
same,MRT inf,"male, Sprague-Dawley, plasma, iv, 1 mg/kg, intravenous injection 1 mg/kg, average n=3, read-out: MRT0-∞",2.33 h
same,Tmax,"male, Sprague-Dawley, plasma, iv, 1 mg/kg, intravenous injection 1 mg/kg, average n=3, read-out: Tmax",0.033 h
same,half-life,"male, Sprague-Dawley, plasma, iv, 1 mg/kg, intravenous injection 1 mg/kg, average n=3, read-out: T½ (converted)",3.01 h
same,Vd,"male, Sprague-Dawley, plasma, iv, 1 mg/kg, intravenous injection 1 mg/kg, average n=3, read-out: Vz",5.66 L/kg
same,AUC(0-inf),[2],861 ng·h/mL
same,clearance,[2],19.4 mL/min/kg
same,AUC0-t,"male, Sprague-Dawley, plasma, iv, 1 mg/kg, intravenous injection 1 mg/kg, individual rats #1-#3, read-out: AUC0-t",822 ng·h/mL
same,C0,"male, Sprague-Dawley, plasma, iv, 1 mg/kg, intravenous injection 1 mg/kg, individual rats #1-#3, read-out: C0",1310 ng/mL
same,Cmax,"male, Sprague-Dawley, plasma, iv, 1 mg/kg, intravenous injection 1 mg/kg, individual rats #1-#3, read-out: Cmax",1020 ng/mL
same,MRT last,"male, Sprague-Dawley, plasma, iv, 1 mg/kg, intravenous injection 1 mg/kg, individual rats #1-#3, read-out: MRT0-t",2.08 h
same,MRT inf,"male, Sprague-Dawley, plasma, iv, 1 mg/kg, intravenous injection 1 mg/kg, individual rats #1-#3, read-out: MRT0-∞",2.75 h
same,Tmax,"male, Sprague-Dawley, plasma, iv, 1 mg/kg, intravenous injection 1 mg/kg, individual rats #1-#3, read-out: Tmax",0.033 h
same,half-life,"male, Sprague-Dawley, plasma, iv, 1 mg/kg, intravenous injection 1 mg/kg, individual rats #1-#3, read-out: T½ (converted)",3.59 h
same,Vd,"male, Sprague-Dawley, plasma, iv, 1 mg/kg, intravenous injection 1 mg/kg, individual rats #1-#3, read-out: Vz",6.01 L/kg
same,bioavailability,"male, Sprague-Dawley, plasma, oral, 10 mg/kg, oral administration (gavage) 10 mg/kg vs intravenous 1 mg/kg, average n=3, read-out: F (oral bioavailability)",144%
same,AUC0-t,"male, Sprague-Dawley, plasma, po, 10 mg/kg, oral administration (gavage) 10 mg/kg, average n=3, read-out: AUC0-t",10900 ng·h/mL
same,Cmax,"male, Sprague-Dawley, plasma, po, 10 mg/kg, oral administration (gavage) 10 mg/kg, average n=3, read-out: Cmax",1480 ng/mL
same,MRT last,"male, Sprague-Dawley, plasma, po, 10 mg/kg, oral administration (gavage) 10 mg/kg, average n=3, read-out: MRT0-t",6.62 h
same,MRT inf,"male, Sprague-Dawley, plasma, po, 10 mg/kg, oral administration (gavage) 10 mg/kg, average n=3, read-out: MRT0-∞",6.81 h
same,MRT last,"male, Sprague-Dawley, plasma, po, 10 mg/kg, oral administration (gavage) 10 mg/kg, individual rats #1-#3, read-out: MRT0-t",5.99 h
same,MRT inf,"male, Sprague-Dawley, plasma, po, 10 mg/kg, oral administration (gavage) 10 mg/kg, individual rats #1-#3, read-out: MRT0-∞",6.19 h
same,AUMC0-t,[3],1413 hr*hr*ng/ml
same,AUMC0-∞,[3],1805 hr*hr*ng/ml
same,AUC0-t,[4],680 ng·h/mL and 723 ng·h/mL
same,AUC0-∞,[4],694 ng·h/mL and 742 ng·h/mL
same,AUMC0-t,[4],1708 hr*hr*ng/ml and 1207 hr*hr*ng/ml and 1326 hr*hr*ng/ml
same,AUMC0-∞,[4],2368 hr*hr*ng/ml and 1418 hr*hr*ng/ml and 1630 hr*hr*ng/ml
same,C0,[4],933 ng/mL and 1116 ng/mL
same,Cl,[4],24.03 mL/min/kg and 22.47 mL/min/kg
same,Cmax,[4],796 ng/mL and 925 ng/mL
same,MRT0-t,[4],1.77 h and 1.83 h
same,MRT0-∞,[4],2.04 h and 2.20 h
same,T½,[4],2.62 h and 2.84 h
same,Vz,[4],5.441 L/kg and 5.521 L/kg
same,F (oral bioavailability),"oral administration (gavage) 10 mg/kg vs intravenous 1 mg/kg, individual rats #1-#3",176.1% and 157.7% and 98.3%
same,AUMC0-t,[5],70219 hr*hr*ng/ml
same,AUMC0-∞,[5],72777 hr*hr*ng/ml
same,Cl,[5],16.1 mL/min/kg
same,Vz,[5],4.204 L/kg
same,AUC0-t,[6],11999 ng·h/mL and 7435 ng·h/mL
same,AUC0-∞,[6],12067 ng·h/mL and 7520 ng·h/mL
same,AUMC0-t,[6],80004 hr*hr*ng/ml and 72172 hr*hr*ng/ml and 58480 hr*hr*ng/ml
same,AUMC0-∞,[6],83364 hr*hr*ng/ml and 74076 hr*hr*ng/ml and 60891 hr*hr*ng/ml
same,Cl,[6],12.4 mL/min/kg and 13.8 mL/min/kg and 22.17 mL/min/kg
same,Cmax,[6],2090 ng/mL and 1710 ng/mL and 645 ng/mL
same,MRT0-t,[6],6.01 h and 7.87 h
same,MRT0-∞,[6],6.14 h and 8.10 h
same,Tmax,[6],1 h
same,T½,[6],2.86 h and 3.01 h
same,Vz,[6],3.418 L/kg and 3.42 L/kg and 5.773 L/kg
